Data published in article PMC11513893, “Discovery of Oral Degraders of the ROS1 Fusion Protein with Potent Activity against Secondary Resistance Mutations” (Journal of Medicinal Chemistry, 2024).

Legend:
[1] = Pharmacokinetics study in Sprague–Dawley rats; assay type: in vivo; details: rat, 0.5 mg/kg iv
[2] = test system: Ba/F3 CD74-ROS1 non mutant; assay: Antiproliferation assay (Alamar Blue, 72 h); assay type: cell-based, mouse; details: Mus musculus, BaF3, 72 h, Ba/F3 cells, cell growth inhibition
[3] = Metabolic stability in human microsomes; assay type: in vitro ADME; details: human, pooled human microsomes, pH 7.4, 250 nM compound, NADPH, 37 °C
Protocol: (§1) Pooled human and rat microsomes were prepared and stored at −80 °C prior to use. A master-mix containing microsome, phosphate buffer, and test compound (9 series) solution was made as follows: (1) 3 μL of microsome (20 mg/mL) was diluted with mixed 30 μL of potassium phosphate buffer (pH 7.4; 10×) and 246 μL of water; (2) 3 μL of 25 μM drug solution was added to the microsome; (3) the master solution was prewarmed at 37 °C for 5 min. NADPH solution A (15 μL) and NADPH solution B (3 μL) from Promega were added to the above-mentioned master solution to initiate the reaction. The final concentration of 9 compounds in the reaction system was 250 nM. An aliquot of 20 μL was pipetted from the reaction solution and stopped by the addition of 180 μL of cold MeCN containing 25 ng of Tamoxifen-(N,N-dimethyl-13C2)-15N as an internal standard at the designated time points (0, 5, 15, 30, 45, and 60 min). The incubation solution was vortexed-mixed (800 rpm/10 min) and centrifuged at 3500 rpm for 10 min to precipitate proteins. The supernatant was collected and used for the LC/MS/MS analysis. The natural log of the remaining percentage of the test compound was plotted against time and the gradient of the line was determined.

ROS1 = ROS1 degradation in Ba/F3 cells (WES immunoblotting); assay type: cell-based
Procedure, shortened: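 ROS1 and phospho-ROS1 (Tyr2274/2334) in Ba/F3 lysates quantified by capillary immunoassay (WES) with chemiluminescent detection, duplicate experiments. Levels expressed as AUC of the chemiluminescence peak.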

[4] = Metabolic stability in rat microsomes; assay type: in vitro ADME; details: rat, pooled rat microsomes, pH 7.4, 250 nM compound, NADPH, 37 °C
Protocol: as §1

[5] = Pharmacokinetics study in Sprague–Dawley rats; assay type: in vivo; details: rat
Protocol: Four to 6 weeks old Sprague–Dawley rats [Crl: CD (SD)] (SPF/VAF) were purchased from Charles River (Wilmington MA). Animals were quarantined/acclimated for 2–6 weeks prior to dose initiation. Sprague–Dawley rats were given oral administration of test compounds (20% PG, 5% Solutol, and 75% of 20% HP-β-CD in water) at different dose levels. After treatment with the compounds, whole blood was collected from each study animal by puncture of the tail vein (0.4 mL of whole blood from rats) into tubes containing K2EDTA at each time point. The plasma samples were divided into 2 aliquots (approximately equal in volume) and stored frozen at −75 ± 15 °C within 2 h of the collection until analysis.
The stock solution of the test compound (0.01 M) in DMSO was prepared and stored at −20 ± 5 °C. The desired serial concentrations of working reference analyte solutions were achieved by diluting a stock analyte solution with 50% acetonitrile (0.1% formic acid) in water solution. The bioanalytical LC–MS/MS method was developed for quantitative determination of each test compound in Sprague–Dawley rat plasma with acceptable selectivity, sensitivity, calibration curve, precision, and accuracy. The analytical method is applicable for the determination of test compounds in Sprague–Dawley rat plasma with a lower limit of quantification of 10.0 ng/mL and an upper limit of quantification of 5000 ng/mL. Five microliters of diluted supernatant was injected into the LC–MS/MS system (TSQ Quantis) and a SynergiTM 4 μm Fusion-RP 80 Å (50 × 2 mm) column using gradient elution and a Triple Quad mass spectrometer) for quantitative analysis. The mobile phases used were 0.1% formic acid in deionized water and 0.1% formic acid in acetonitrile. The pharmacokinetic parameters T1/2 (the biological half-life), Cmax (maximal concentration), Tmax (time at which Cmax is observed), and AUC (area under the plasma concentration–time curve) were calculated from the plasma concentration versus time data using WinNonlin (PhoenixTM, version 8.1, Mountain View, CA, USA).

Ba/F3 ROS1-G2032R = assay: Antiproliferation assay; assay type: cell-based, mouse; details: Mus musculus, BaF3; Ba/F3 cells, cell growth inhibition, 72 h
Log P measurement = assay type: physicochemical
Excerpt: An important physicochemical property for a PROTAC molecule is its lipophilicity that largely dictates its pharmaceutical performance such as absorption, permeability, and distribution.

Ba/F3 ROS1 L2086F = assay: Antiproliferation assay; assay type: cell-based; details: Mus musculus, BaF3; Ba/F3 cells, cell growth inhibition
Excerpt: To assess targeted degradation of ROS1 fusion proteins, we first established a mouse pro-B cell line Ba/F3 as a model expressing the CD74-ROS1 oncogene or CD74-ROS1 with clinically observed secondary/tertiary mutations. The Ba/F3 cell line is dependent on interleukin-3 for survival and proliferation. Upon transduction of oncogenic ROS1, Ba/F3 cells become independent of interleukin-3 but dependent on the transduced driver gene. The Ba/F3 models have been effectively employed in the discovery and preclinical development of next generation ROS1 inhibitors.[11],[14],[15] We have tested ROS1 inhibitors against these Ba/F3 cells to validate their sensitivity and resistance to ROS1 inhibition.
(§2) Ba/F3 immortalized murine bone marrow–derived pro-B cells were obtained from Creative Biogene (Shirley, NY) and cultured in RPMI supplemented with 10% FBS and IL3 (0.5 ng/mL). Ba/F3 cells expressing ROS1 variants were maintained in RPMI supplemented with 10% FBS and puromycin (0.7 mg/mL). Crizotinib, ceritinib, brigatinib, repotrectinib, and lorlatinib were purchased from MedChem Express. Each compound was dissolved in DMSO and serially diluted in RPMI for cell culture experiments.
(§3) To assess the 72 h effect of drug treatment on cell proliferation, 2000 to 3000 cells were plated in replicates of three in 96-well plates. The plates were placed in an incubator at 37 °C, 5% CO2 for 72 h. Following drug treatments, the cells were incubated with the Alamar Blue Assay reagent (BioRad), 5 μL each well for 4 h at 37 °C and 5% CO2. Luminescence was measured on a multiplate reader and analyzed. […] IC50 values were determined using a nonlinear regression model with a sigmoidal dose response in GraphPad. The data were collected based on triplicate experiments, and presented as mean ± SD.
(§4) cDNA encoding CD74-ROS1 or mutant CD74–ROS1 was cloned into retroviral expression vectors (pLenti), and viruses were generated in HEK293T cells by transfecting with packaging plasmids. The resulting virus was used to infect Ba/F3 cells. After retroviral infection, Ba/F3 cells were selected by incubation with puromycin (0.7 mg/mL) for 2 weeks. For Ba/F3 cells infected by the CD74–ROS1 variants, IL3 was withdrawn from the culture medium at least 2 weeks before the experiments.

[6] = test system: Ba/F3 ROS1 (SLC34A2) G2032R; assay: Antiproliferation assay; assay type: cell-based; details: Mus musculus, BaF3; Ba/F3 cell line
Protocol: (§5) Ba/F3 immortalized murine bone marrow–derived pro-B cells were obtained from Creative Biogene (Shirley, NY) and cultured in RPMI supplemented with 10% FBS and IL3 (0.5 ng/mL). Ba/F3 cells expressing ROS1 variants were maintained in RPMI supplemented with 10% FBS and puromycin (0.7 mg/mL). […] Each compound was dissolved in DMSO and serially diluted in RPMI for cell culture experiments.
as §3

[7] = test system: Ba/F3 ROS1 (SLC34A2) D2033N; assay: Antiproliferation assay; assay type: cell-based; details: Mus musculus, BaF3; Ba/F3 cell line
Protocol: as §5, §3

[8] = test system: Ba/F3 ROS1 (SLC34A2) G2032R-F2075 V; assay: Antiproliferation assay; assay type: cell-based; details: Mus musculus, BaF3; Ba/F3 cell line
Protocol: as §5, §3

[9] = test system: Ba/F3 ROS1 (SLC34A2) L2026M; assay: Antiproliferation assay; assay type: cell-based; details: Mus musculus, BaF3; Ba/F3 cell line
Protocol: as §5, §3

[10] = test system: Ba/F3 ROS1 (SLC34A2) F2075C-G1837E; assay: Antiproliferation assay; assay type: cell-based; details: Mus musculus, BaF3; Ba/F3 cell line
Protocol: as §2, §3

[11] = test system: Ba/F3 ROS1 (SLC34A2) G2032R-F2075C; assay: Antiproliferation assay; assay type: cell-based; details: Mus musculus, BaF3; Ba/F3 cell line
Protocol: as §2, §3

[12] = test system: Ba/F3 ROS1 (SLC34A2) G2032R-D2113G; assay: Antiproliferation assay; assay type: cell-based; details: Mus musculus, BaF3; Ba/F3 cell line
Protocol: as §2, §3

Ba/F3 ROS1 (CD74) G2032R = assay: Antiproliferation assay; assay type: cell-based; details: Mus musculus, BaF3; Ba/F3 cell line
Protocol: as §2, §3, §4

Ba/F3 ROS1 (CD74) L2086F = assay: Antiproliferation assay; assay type: cell-based; details: Mus musculus, BaF3; Ba/F3 cell line
Protocol: as §2, §3, §4

[13] = test system: Ba/F3 ROS1 (CD74) S1986F-L2086F; assay: Antiproliferation assay; assay type: cell-based; details: Mus musculus, BaF3; Ba/F3 cell line
Protocol: as §2, §3, §4

[14] = test system: Ba/F3 ROS1 (CD74) S1986F-G2032R; assay: Antiproliferation assay; assay type: cell-based; details: Mus musculus, BaF3; Ba/F3 cell line
Protocol: as §2, §3, §4

[15] = test system: Ba/F3 ROS1 (CD74) G2032R-L2086F; assay: Antiproliferation assay; assay type: cell-based; details: Mus musculus, BaF3; Ba/F3 cell line
Protocol: as §2, §3, §4

[16] = test system: Ba/F3 ROS1 (CD74) S1986F-G2032R-L2086F; assay: Antiproliferation assay; assay type: cell-based; details: Mus musculus, BaF3; Ba/F3 cell line
Protocol: as §2, §3, §4

Ba/F3 ROS1 D2033N = assay: Antiproliferation assay; assay type: cell-based; details: Mus musculus, BaF3; Ba/F3 cells, cell growth inhibition
Excerpt: (§6) To assess targeted degradation of ROS1 fusion proteins, we first established a mouse pro-B cell line Ba/F3 as a model expressing the CD74-ROS1 oncogene or CD74-ROS1 with clinically observed secondary/tertiary mutations. The Ba/F3 cell line is dependent on interleukin-3 for survival and proliferation. Upon transduction of oncogenic ROS1, Ba/F3 cells become independent of interleukin-3 but dependent on the transduced driver gene.
as §5, §3
(§7) The resulting virus was used to infect Ba/F3 cells. After retroviral infection, Ba/F3 cells were selected by incubation with puromycin (0.7 mg/mL) for 2 weeks. For Ba/F3 cells infected by the CD74–ROS1 variants, IL3 was withdrawn from the culture medium at least 2 weeks before the experiments.

Ba/F3 ROS1 L2026M = assay: Antiproliferation assay; assay type: cell-based; details: Mus musculus, BaF3; Ba/F3 cells, cell growth inhibition
Excerpt: as §6, §5, §3, §7

Ba/F3 ROS1 G2032R-F2075V = assay: Antiproliferation assay; assay type: cell-based; details: Mus musculus, BaF3; Ba/F3 cells, cell growth inhibition
Excerpt: as §6, §5, §3, §7

[17] = test system: Ba/F3 ROS1 (SLC34A2) V2098I; assay: Antiproliferation assay; assay type: cell-based; details: Mus musculus, BaF3; Ba/F3 cell line
Protocol: as §5, §3

Compound	IC50 (Ba/F3 ROS1-G2032R)	IC50 (Ba/F3 ROS1 L2086F)	IC50 [10]	IC50 [11]	IC50 [12]	IC50 (Ba/F3 ROS1 (CD74) G2032R)	IC50 (Ba/F3 ROS1 (CD74) L2086F)	IC50 [13]	IC50 [14]	IC50 [15]	IC50 [16]	further results
COc1cc(N2CCN(CC3CN(c4ccc5c(c4)CN(C4CCC(=O)NC4=O)C5=O)C3)CC2)ccc1Nc1ncc(Cl)c(Nc2ccccc2P(C)(C)=O)n1 (centres unmarked) [9m, 3-(5-(3-((4-(4-((5-Chloro-4-((2-(dimethylphosphoryl)phenyl)amino)pyrimidin-2-yl)amino)-3-methoxyphenyl)piperazin-1-yl)methyl)azetidin-1-yl)-1-oxoisoindolin-2-yl)piperidine-2,6-dione]	120 ± 27 nM	–	–	–	–	–	–	–	–	–	–	AUC (iv) [1]: 2151 ng·h/mL; IC50 [2]: 8 ± 0.9 nM; microsomal CLint at 1 h, 0.25 µM [3]: 94.5 µL/min/mg; half-life at 1 h, 0.25 µM ([3]; read-out: metabolic stability in human microsomes T1/2): 0.615 h; DC50 (ROS1; concentration needed to reduce ROS1 protein by 50%, Ba/F3 cells): 9 nM; Dmax (%) (ROS1) (ROS1; maximal degradation of ROS1 in Ba/F3 cells): 94%; microsomal CLint at 1 h, 0.25 µM [4]: 9.6 µL/min/mg; half-life at 1 h, 0.25 µM ([4]; read-out: metabolic stability in rat microsomes T1/2): 2.41 h; Cmax at 24 h ([5]; Sprague-Dawley [Crl: CD (SD)], plasma, 5 mg/kg po): 145 ng/mL; bioavailability ([5]; Sprague-Dawley [Crl: CD (SD)], plasma, 5 mg/kg po vs 0.5 mg/kg iv): 4.8%; AUC (po) ([5]; 5 mg/kg po): 1032 ng·h/mL; T1/2 ([5]; 5 mg/kg po): 8.88 h; Tmax ([5]; 5 mg/kg po): 1 h; logP (Log P measurement): 3.07
COc1cc(N2CCC(N3CCN(C)CC3)CC2)ccc1Nc1ncc(Cl)c(Nc2ccccc2P(C)(C)=O)n1 [brigatinib]	265 ± 73 nM	172 ± 24 nM	8.1 ± 2.2 nM	869 ± 148 nM	215 ± 50.3 nM	513 ± 118 nM	172 ± 47.6 nM	329 ± 85.5 nM	488 ± 96.8 nM	694 ± 204 nM	> 2000 nM	IC50 [6]: 490 ± 38.4 nM; IC50 [7]: 114 ± 25.3 nM; IC50 [8]: 327 ± 44.8 nM; IC50 [9]: 47.8 ± 10.2 nM; IC50 (Ba/F3 ROS1 D2033N): 114 ± 17 nM; IC50 (Ba/F3 ROS1 L2026M): 48 ± 4 nM; IC50 (Ba/F3 ROS1 G2032R-F2075V): 327 ± 43 nM
C[C@H]1CNC(=O)c2cnn3ccc(nc23)N[C@H](C)c2cc(F)ccc2O1 [repotrectinib]	–	> 2000 nM	0.4 ± 0.2 nM	> 2000 nM	25 ± 6.8 nM	23.5 ± 3.8 nM	588 ± 76 nM	> 2000 nM	31.4 ± 7.3 nM	181 ± 22.5 nM	> 2000 nM	IC50 [17]: 3.5 ± 0.6 nM
